In PMC8003485, “Synthesis and Evaluation of Novel α-Aminoamides Containing Benzoheterocyclic Moiety for the Treatment of Pain” (Molecules, 2021):
Like-named read-outs stand apart in the source and are kept apart here.

Assays:
ICR (CD-1) male mice = assay: Acetic acid-induced writhing test; format: in vivo; conditions: 10 mg/kg, i.p.; writhes in 20 min; mean ± SD, n = 6
Description: The writhing test was performed according to a previously reported method. The ICR (CD-1) male mice (weight: 22–25 g) were treated as for the formalin test in the same environment. The mice were divided into a vehicle group, a ralfinamide group, and test compound groups randomly, with six mice in each group. All compounds were dissolved in saline and administered by intraperitoneal injection at 10 mg/kg. The vehicle group was given the same volume of saline. After administration, the mice were placed into PVC chambers. Thirty minutes later, the mice were injected with 1% acetic acid solution at 10 mL/kg by intraperitoneal injection and placed into the observation chambers immediately to record the number of writhes each mouse had in 20 min. The results were presented as the mean ± standard deviation. The analytical method was the same as that for the formalin test, and the analgesic activity of each compound was calculated by the following formula. %Analgesia=Average Number (Vehicle)−Average Number (Drug)/Average Number (Vehicle)× 100%

hNav1.7 = target: T1, hNav1.7 (Homo sapiens, UniProt Q15858); assay: Whole-cell patch clamp assay for hNav1.7 inhibition (HEK293 cells stably expressing hNav1.7); format: cell-based; conditions: for inhibition at 10 µM: HEK293, TTX-sensitive Nav1.7 current, mean ± SD; for IC50: TTX-sensitive inactivated Nav1.7 current
T1 construct: expressed in transfected cells; host or cells: HEK293
Description: The compounds were tested as hNav1.7 peak current inhibitors at room temperature using human embryonic kidney 293 cells stably expressing hNav1.7. The holding voltage was depolarized to 0 mV from −120 mV for 20 ms and restored to −75 mV for 8 s. After that, the membrane potential was recovered to −120 mV for 20 ms and then depolarized to 0 mV for another 20 ms. Finally, the voltage was renewed to −120 mV for 30 ms. The potential was applied every 20 s. The compounds were administered when the voltage of hNav1.7 recorded by the whole-cell patch clamp was stable. Every compound concentration was tested for 5 min, and all compounds were tested at several concentrations and with multiple cells.

mouse [1] = assay: Mouse tail flick assay; format: in vivo; conditions: even at a high dose of 100 mg/kg; data not shown
mouse [2] = assay: Mouse hotplate assay; format: in vivo; conditions: even at a high dose of 100 mg/kg; data not shown
hNav1.8 = target: T2, hNav1.8 (Homo sapiens, UniProt Q9Y5Y9); assay: Whole-cell patch clamp assay for hNav1.8 inhibition (CHO cells stably expressing hNav1.8); format: cell-based; conditions: for IC50: Nav1.8 inactivated state Na+ currents
T2 construct: expressed in transfected cells; host or cells: CHO
Description: The whole-cell patch clamp assay assessing the hNav1.8 current was carried out at room temperature with Chinese hamster ovary cells stably expressing hNav1.8. The holding voltage of the membrane was transferred to 0 mV from −120 mV for 50 ms and then restored to −50 mV for 8 s. After that, the membrane potential was renewed to −120 mV for 20 ms, which was followed by a depolarization to 0 mV for 50 ms. Finally, the potential was recovered to the holding voltage of −120 mV for 30 ms. This process was performed every 20 s. The compounds were administered when the voltage of hNav1.8 was stable. Every compound concentration was tested for 5 min, and all compounds were tested at several concentrations and with multiple cells.

ICR (CD−1) male mice [3] = assay: Formalin test (mouse, phase II paw licking); format: in vivo
ICR (CD−1) male mice [4] = assay: Formalin test (mouse, phase II paw licking); format: in vivo; conditions: for inhibition in vivo at 10 mg/kg: Mus musculus, ip, read-out: % Analgesia (formalin test)
Description: The formalin test was carried out using the method described previously. During the formalin test, Institute of Cancer Research (ICR; CD−1) male mice (weight: 22–25 g) were acclimated to the environment for two days before the experiment with food and water available freely. The mice were housed under a 12 h/12 h light/dark cycle. The temperature and humidity of the room were kept at 25 ± 2 °C and 50–60%, respectively. The mice were divided into a vehicle group, a ralfinamide group, and test compound groups randomly, with eight mice in each group. All compounds were dissolved in saline and administered by intraperitoneal injection (n = 8) or intragastric administration by mouth (n = 8) at 10 mg/kg. The vehicle group was given the same volume of saline.
After administration, the mice were placed into polyvinyl chloride (PVC) observation chambers. Thirty minutes later, the mice were injected subcutaneously with 20 μL of 2.7% formalin solution into the surface of their right hind paw and were returned to their PVC chambers immediately to observe their behavior. The cumulative time each mouse licked its right hind paw during phase II (15–30 min) was recorded as its painful time in phase II. The analgesic effects of the compounds were presented as the mean ± standard deviation. The data were analyzed by SPSS using one-way analysis of variance followed by Dunnett’s test. The analgesic activity of the test compounds was calculated according to the following formula. %Analgesia=Average Time (Vehicle)−Average Time (Drug)/Average Time (Vehicle)× 100%

hNav1.5 = target: T3, hNav1.5 (Homo sapiens, UniProt Q14524); assay: Assay for hNav1.5 inhibition (HEK293 cells stably expressing hNav1.5); format: cell-based; conditions: for inhibition at 10 µM: HEK293, read-out: Inhibitory Effect to Nav1.5; for Inhibitory activity against Nav1.5 (in words): similarly to ralfinamide, low selectivity over the cardiac sodium channel
T3 construct: expressed in transfected cells; host or cells: HEK293
Description: The inhibition of the compounds to hNav1.5 peak current was performed at room temperature using HEK293 cells that could express hNav1.5 stably. The holding voltage of the membrane was transferred to 0 mV from −120 mV for 50 ms and then restored to −50 mV for 8 s. After that, the membrane potential was renewed to −120 mV for 20 ms, followed by a depolarization to 0 mV for 50 ms. At last, the potential was recovered to the holding voltage −120 mV for 30 ms. This progress was performed every 20 s. The compounds were administrated when the voltage of hNav1.5 was stable. Every concentration was tested for 5 min and all compounds were tested at several concentrations and with multiple cells.

[5] = read-out: Inhibitory Effect against Nav1.7, Activated State (TP−1)
[6] = read-out: Inhibitory Effect against Nav1.7, Inactivated State (TP−2)
[7] = 10 mg/kg, i.p., phase II (15–30 min), mean ± SD, n = 8

T3 sequence (Q14524 whole entry): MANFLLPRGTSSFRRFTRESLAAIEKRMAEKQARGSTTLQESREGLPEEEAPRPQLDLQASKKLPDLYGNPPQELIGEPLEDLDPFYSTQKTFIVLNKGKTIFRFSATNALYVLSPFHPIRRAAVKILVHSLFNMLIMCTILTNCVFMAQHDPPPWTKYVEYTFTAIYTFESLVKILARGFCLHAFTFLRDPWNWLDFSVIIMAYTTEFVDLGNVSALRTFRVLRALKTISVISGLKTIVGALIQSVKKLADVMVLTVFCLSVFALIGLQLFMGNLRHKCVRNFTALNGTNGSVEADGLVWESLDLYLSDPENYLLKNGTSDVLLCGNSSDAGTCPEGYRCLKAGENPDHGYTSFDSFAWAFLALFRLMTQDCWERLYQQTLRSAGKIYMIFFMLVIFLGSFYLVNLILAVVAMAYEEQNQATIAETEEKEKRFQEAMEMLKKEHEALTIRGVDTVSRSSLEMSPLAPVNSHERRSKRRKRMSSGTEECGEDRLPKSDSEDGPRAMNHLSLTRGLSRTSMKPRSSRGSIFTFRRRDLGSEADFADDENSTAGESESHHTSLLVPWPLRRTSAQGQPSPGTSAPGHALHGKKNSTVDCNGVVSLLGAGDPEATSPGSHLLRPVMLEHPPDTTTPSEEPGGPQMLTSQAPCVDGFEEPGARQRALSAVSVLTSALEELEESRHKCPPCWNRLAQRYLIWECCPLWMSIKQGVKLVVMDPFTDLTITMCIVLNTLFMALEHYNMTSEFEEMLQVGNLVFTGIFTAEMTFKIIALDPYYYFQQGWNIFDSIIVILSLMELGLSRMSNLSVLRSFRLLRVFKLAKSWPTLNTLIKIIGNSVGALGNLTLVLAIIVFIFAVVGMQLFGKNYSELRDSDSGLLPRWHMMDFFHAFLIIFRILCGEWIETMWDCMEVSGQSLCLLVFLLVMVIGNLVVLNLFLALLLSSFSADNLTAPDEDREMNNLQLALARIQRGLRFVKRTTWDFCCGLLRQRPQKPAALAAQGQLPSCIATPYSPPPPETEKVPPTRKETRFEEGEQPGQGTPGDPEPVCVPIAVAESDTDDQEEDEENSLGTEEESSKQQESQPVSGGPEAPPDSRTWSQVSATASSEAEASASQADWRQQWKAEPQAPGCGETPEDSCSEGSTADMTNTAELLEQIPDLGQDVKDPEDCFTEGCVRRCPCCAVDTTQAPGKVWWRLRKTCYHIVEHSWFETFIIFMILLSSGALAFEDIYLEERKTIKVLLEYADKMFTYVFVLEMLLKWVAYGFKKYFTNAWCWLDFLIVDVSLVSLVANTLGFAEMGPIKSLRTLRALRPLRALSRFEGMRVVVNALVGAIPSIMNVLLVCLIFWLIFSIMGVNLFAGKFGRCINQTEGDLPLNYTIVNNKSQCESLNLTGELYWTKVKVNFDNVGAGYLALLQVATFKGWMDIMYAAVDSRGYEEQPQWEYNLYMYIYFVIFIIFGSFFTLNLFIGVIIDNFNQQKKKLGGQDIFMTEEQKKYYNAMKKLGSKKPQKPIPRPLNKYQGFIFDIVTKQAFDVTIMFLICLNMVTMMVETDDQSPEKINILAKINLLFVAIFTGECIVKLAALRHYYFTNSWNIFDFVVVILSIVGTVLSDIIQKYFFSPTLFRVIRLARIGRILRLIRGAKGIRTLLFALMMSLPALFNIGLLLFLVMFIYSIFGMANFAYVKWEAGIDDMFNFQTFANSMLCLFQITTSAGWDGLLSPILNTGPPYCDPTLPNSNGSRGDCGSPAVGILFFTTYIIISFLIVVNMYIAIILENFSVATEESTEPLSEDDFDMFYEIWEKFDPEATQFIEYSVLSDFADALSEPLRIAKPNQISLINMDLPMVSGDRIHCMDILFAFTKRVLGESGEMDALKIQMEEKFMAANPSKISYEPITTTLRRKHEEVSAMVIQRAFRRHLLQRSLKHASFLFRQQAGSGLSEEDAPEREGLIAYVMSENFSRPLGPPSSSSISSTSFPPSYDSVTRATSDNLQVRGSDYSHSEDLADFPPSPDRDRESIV
T2 sequence (Q9Y5Y9 whole entry): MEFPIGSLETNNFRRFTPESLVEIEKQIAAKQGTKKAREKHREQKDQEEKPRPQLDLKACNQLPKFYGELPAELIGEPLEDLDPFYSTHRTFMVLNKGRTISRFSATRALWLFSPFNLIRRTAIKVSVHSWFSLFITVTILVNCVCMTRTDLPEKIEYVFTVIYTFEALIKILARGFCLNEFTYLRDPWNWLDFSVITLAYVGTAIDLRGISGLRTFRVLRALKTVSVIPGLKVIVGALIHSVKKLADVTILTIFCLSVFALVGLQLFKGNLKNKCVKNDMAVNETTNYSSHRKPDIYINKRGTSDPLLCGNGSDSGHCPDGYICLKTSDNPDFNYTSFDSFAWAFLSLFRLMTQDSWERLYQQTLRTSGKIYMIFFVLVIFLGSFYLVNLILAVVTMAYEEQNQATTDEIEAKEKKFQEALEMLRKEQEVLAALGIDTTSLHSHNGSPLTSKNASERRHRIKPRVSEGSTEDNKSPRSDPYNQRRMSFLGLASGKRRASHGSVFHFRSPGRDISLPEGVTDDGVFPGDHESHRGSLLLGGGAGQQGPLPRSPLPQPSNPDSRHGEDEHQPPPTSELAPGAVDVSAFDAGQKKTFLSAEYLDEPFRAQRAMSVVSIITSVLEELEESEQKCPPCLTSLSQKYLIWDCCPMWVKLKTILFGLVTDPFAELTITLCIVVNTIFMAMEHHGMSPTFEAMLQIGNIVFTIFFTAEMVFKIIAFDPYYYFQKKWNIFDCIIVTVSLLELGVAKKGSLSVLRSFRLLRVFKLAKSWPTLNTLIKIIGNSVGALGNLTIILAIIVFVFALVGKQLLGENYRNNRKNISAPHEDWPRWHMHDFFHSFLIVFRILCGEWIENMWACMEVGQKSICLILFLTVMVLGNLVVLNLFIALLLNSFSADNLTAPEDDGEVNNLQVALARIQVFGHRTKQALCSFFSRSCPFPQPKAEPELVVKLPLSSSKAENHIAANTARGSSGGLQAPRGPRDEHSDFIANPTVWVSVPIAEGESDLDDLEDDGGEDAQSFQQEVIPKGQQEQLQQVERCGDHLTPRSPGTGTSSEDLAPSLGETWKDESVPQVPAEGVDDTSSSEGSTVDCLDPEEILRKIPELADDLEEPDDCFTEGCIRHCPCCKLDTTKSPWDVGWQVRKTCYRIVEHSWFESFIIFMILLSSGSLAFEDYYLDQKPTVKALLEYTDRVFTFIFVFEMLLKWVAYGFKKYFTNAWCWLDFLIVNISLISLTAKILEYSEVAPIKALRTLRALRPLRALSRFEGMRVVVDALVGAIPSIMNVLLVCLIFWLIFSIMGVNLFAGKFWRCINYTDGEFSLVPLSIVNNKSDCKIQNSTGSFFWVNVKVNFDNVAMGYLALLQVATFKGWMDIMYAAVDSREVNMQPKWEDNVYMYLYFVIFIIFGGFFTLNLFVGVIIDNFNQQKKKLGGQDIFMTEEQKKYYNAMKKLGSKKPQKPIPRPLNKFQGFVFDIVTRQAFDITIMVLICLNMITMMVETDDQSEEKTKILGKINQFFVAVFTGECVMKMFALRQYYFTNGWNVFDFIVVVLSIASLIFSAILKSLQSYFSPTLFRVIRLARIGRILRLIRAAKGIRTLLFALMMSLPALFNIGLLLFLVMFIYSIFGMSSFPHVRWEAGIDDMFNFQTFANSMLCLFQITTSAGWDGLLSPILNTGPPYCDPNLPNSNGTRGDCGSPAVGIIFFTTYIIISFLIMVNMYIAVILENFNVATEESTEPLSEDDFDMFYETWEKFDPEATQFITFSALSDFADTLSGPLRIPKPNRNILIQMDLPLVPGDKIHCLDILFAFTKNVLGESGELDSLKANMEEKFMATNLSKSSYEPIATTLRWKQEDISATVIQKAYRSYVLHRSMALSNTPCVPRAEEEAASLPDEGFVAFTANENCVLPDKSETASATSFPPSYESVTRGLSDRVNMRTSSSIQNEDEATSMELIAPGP

SMILES | % Analgesia (acetic acid-induced writhing test) (ICR (CD-1) male mice) | inhibition at 10 µM (hNav1.7; [5]) [%] | inhibition at 10 µM (hNav1.7; [6]) [%] | IC50 (hNav1.7; Table 4) [µM] | Nav1.7 IC50 compared to ralfinamide (in words) (hNav1.7; ratio of IC50 values, Table 4) | Analgesic effect in tail flick assay (in words) (mouse [1]) | Analgesic effect in mouse hotplate assay (in words) (mouse [2]) | IC50 (hNav1.8) [µM] | Potency against Nav1.8 compared to ralfinamide (in words) (hNav1.8; ratio of IC50 values, Table 5) | Analgesic response (formalin test) (ICR (CD−1) male mice [3]; 5 mg/kg, intraperitoneal injection, dose-effect relationship assay) [%] | Dose dependence of analgesic activity (in words) (ICR (CD−1) male mice [3]; formalin test, 2.5 mg/kg, 5 mg/kg and 10 mg/kg by intraperitoneal injection) | % Analgesia (formalin test) (ICR (CD−1) male mice [4]; [7]) | inhibition in vivo at 10 mg/kg (ICR (CD−1) male mice [4]; [7]) [%] | Percentage of analgesia relative to ralfinamide (times higher) (ICR (CD−1) male mice [4]; formalin test, 10 mg/kg) | Analgesic activity after intragastric administration by mouth (in words) (ICR (CD−1) male mice [4]; formalin test, oral administration assay, compared to ralfinamide) | inhibition at 10 µM (hNav1.5) [%] | Inhibitory activity against Nav1.5 (in words) (hNav1.5)
C[C@H](NCc1cccc(COc2cccc3occc23)c1)C(N)=O [Compound 6a, (S)-2-((3-((Benzofuran-4-yloxy)methyl)benzyl)amino)propanamide] | 49.7 ± 11.3 ^☆ % | 15.6 ± 0.8 | 61.8 ± 0.2 | 2.3 ± 0.2 | three times lower | no analgesic effect | no analgesic effect | 4.3 ± 0.5 | nearly nine-fold more potent | 69.6 | dose-dependent activity | 84.0 ± 16.2 ^☆ * % | 84 | 1.5–2 times | higher analgesic activity than ralfinamide | 66.8 ± 1.5 | moderate inhibitory activity
C[C@H](NCc1cccc(COc2ccc3ccoc3c2)c1)C(N)=O [Compound 6e, (S)-2-((3-((Benzofuran-6-yloxy)methyl)benzyl)amino)propanamide] | 45.7 ± 17.2 ^☆ % | 11.4 ± 1.6 | 58.5 ± 1.8 | 9.4 ± 2.7 | – | no analgesic effect | no analgesic effect | 10.1 ± 1.9 | – | – | – | – | 71.7 ± 22 | 1.5–2 times | – | 70.1 ± 2.2 | moderate inhibitory activity
C[C@H](NCc1ccc(COc2ccc3ccoc3c2)cc1)C(N)=O [Compound 6f, (S)-2-((4-((Benzofuran-6-yloxy)methyl)benzyl)amino)propanamide] | 63.2 ± 13.3 ^☆ @ % | 12.4 ± 2.9 | 50.4 ± 3.6 | 8.1 ± 1.1 | – | no analgesic effect | no analgesic effect | 4.8 ± 0.7 | – | – | – | – | 67.8 ± 22.7 | 1.5–2 times | – | 48 ± 0.1 | moderate inhibitory activity
